Experimental data taken from patent US7138491B2, “Carboline-3-carboxylic acid modified related sequences of Ala-Arg-Pro-Ala-Lys, their synthesis and use as thromobolytic agent” (Guangzhou Bai Yun Shan Pharmaceutical Co., Ltd., priority 2003, dated 2006).
Marks after values point to notes of the source that are not given here. Ends that are not written are not given here.

How the values were obtained:
fibrin plate = experiment: In vitro fibrinolytic lysis on fibrin plate (fibrinogen-agarose); format: biochemical, rabbit; details: dosage per well differs per compound (0.8-2.2 μg; UK 5 IU); n = 6; NS control 21.01 ± 9.26
Description: The plates were prepared by mixing equal volumes of 0.3% rabbit fibrinogen and 0.95% agarose solutions, both dissolved in 50 mM of barbital buffer (pH 7.8, contained 1.66 mM of CaCl2, 0.68 mM of MgCl2 and 93.96 mM of NaCl)^[6]. The fibrinogen-agarose mixture was coagulated with […] thrombin (100 IU: ml) in the plastic dishes (its diameter is 90 mm and the depth of the fibrin plate is 1 mm). After 30 min at 4° C. an adequate number of wells, 5 mm in diameter, were perforated. To determine fibrinolytic activity […] aliquots of the tested pseudopeptides were added to each well, the plate was incubated, and areas of lysis were quantified as described for the regular fibrin plates.

[1] = system: rabbit euglobulin fraction; experiment: In vitro euglobulin clot lysis time (ECLT); format: biochemical; details: dosage differs per compound (1.3-6.7 μg; UK 5 IU); 96 well microtiter plate; n = 6; NS control 200.01 ± 15.26
Description: The rabbit euglobulin fraction was prepared according to the literature^[6]. Plasma diluted […] in distilled water was precipitated at pH 5.7 with acetic acid (0.25%). After 30 min at 4° C. the suspension was centrifuged at 2000 g for 15 min and the precipitate was resuspended to the initial plasma volume with 50 mM barbital buffer (pH 7.8, contained 1.66 mM of CaCl2, 0.68 mM of MgCl2 and 93.96 mM of NaCl). Euglobulin clot lysis time (ECLT) of the tested pseudopeptide was measured using a 96 well microtiter plate^[7] and the data are listed in Table 2.

thrombus = experiment: In vivo thrombolytic activity, thrombus on steel helix in extracorporeal circulation; details: male Wistar rats; injected; dose differs per compound (3.1-8.2 mg/kg; UK 20000 IU); blood circulated 90 min; n = 10; NS control 12.31 ± 2.57
Description: Male Wistar rats weighing 200–300 g (purchased from Animal Center of Peking University) were anesthetized with pentobarbital sodium (80.0 mg/kg, ip). The right carotid artery and left vein jugular of the animals were separated. To the glass tube filled with artery blood (1.0 ml) from the right carotid artery of the animal a stainless steel filament helix (15 circles; L, 15 mm; D, 1.0 mm) was put immediately. After 15 minutes the helix with thrombus was carefully taken out and weighted exactly, which was put into the middle polyethylene tube. The polyethylene tube was full with heparin sodium (50 IU/ml of NS) and one end was inserted into the left jugular vein. Heparin sodium was injected via the other end of the polyethylene tube as the anticoagulant, following which the tested pseudopeptide was injected. The blood was circulated through the polyethylene tube for 90 min, after which the helix was taken out and weighted accurately.

Substance	Effect of the pseudopeptides on fibrin plate, areas of lysis, x ± SD (fibrin plate)	Euglobulin clot lysis time, x ± SD [1]	The reduction of thrombolytic mass, x ± SD (thrombus)
H-Asn-Arg-Pro-Ala-Lys-OH (H-NRPAK-OH) [compound 5]	22.66 ± 9.46 mm^2	212.88 ± 29.66 min	12.88 ± 2.66 mg
3S-1,2,3,4-tetrahydro-β-carboline-3-carboxyl-Pro-Ala-Lys-OH [compound 20]	19.41 ± 11.71 mm^2	209.31 ± 31.57 min	13.31 ± 0.0257 mg
3S-1,2,3,4-tetrahydro-β-carboline-3-carboxyl-Gly-Arg-Pro-Ala-Lys-OH (GRPAK-OH; not fully specified (N-terminus); printed as 3S-1,2,3,4-tetrahydro-β-carboline-3-carboxyl-Gly-Arg-Pro-Ala-Lys-OH) [compound 12]	23.53 ± 9.74 mm^2	213.35 ± 29.47 min	13.35 ± 2.47 mg
3S-(2-Arg-Pro-Ala-Lys)-1,2,3,4-tetrahydro-β-carboline-3-carboxylic acid (RPAK; not fully specified (C-terminus)) [compound 29]	126.55 ± 9.98^a mm^2	104.40 ± 27.51^a min	24.40 ± 2.51^a,d mg
H-Arg-Arg-Pro-Ala-Lys-OH (H-RRPAK-OH) [compound 6]	33.77 ± 10.05 mm^2	213.31 ± 27.75 min	13.31 ± 2.75 mg
3S-(2-Pro-Ala-Lys)-1,2,3,4-tetrahydro-β-carboline-3-carboxylic acid [compound 30]	139.39 ± 9.52^a mm^2	96.56 ± 30.42^a min	26.56 ± 2.42^b mg
3S-1,2,3,4-tetrahydro-β-carboline-3-carboxyl-Asn-Arg-Pro-Ala-Lys-OH (NRPAK-OH; not fully specified (N-terminus); printed as 3S-1,2,3,4-tetrahydro-β-carboline-3-carboxyl-Asn-Arg-Pro-Ala-Lys-OH) [compound 15]	23.21 ± 9.74 mm^2	213.12 ± 29.47 min	13.12 ± 2.47 mg
3S-(2-Ala-Arg-Pro-Ala-Lys)-1,2,3,4-tetrahydro-β-carboline-3-carboxylic acid (ARPAK; not fully specified (C-terminus)) [compound 21]	119.70 ± 10.71^a mm^2	119.70 ± 23.71^a min	19.7 ± 3.71^2) mg
3S-(2-Lys-Arg-Pro-Ala-Lys)-1,2,3,4-tetrahydro-β-carboline-3-carboxylic acid (KRPAK; not fully specified (C-terminus)) [compound 23]	19.87 ± 9.58 mm^2	213.98 ± 29.45 min	13.98 ± 2.45 mg
H-Gln-Arg-Pro-Ala-Lys-OH (H-QRPAK-OH) [compound 4]	136.28 ± 10.62^a mm^2	86.28 ± 20.46^a,b min	21.28 ± 3.46^1)2) mg
3S-(2-Ala-Arg-Pro-Ala)-1,2,3,4-tetrahydro-β-carboline-3-carboxylic acid (ARPA; not fully specified (C-terminus)) [compound 27]	23.32 ± 9.99 mm^2	203.89 ± 29.67 min	13.89 ± 2.67 mg
3S-(2-Arg-Arg-Pro-Ala-Lys)-1,2,3,4-tetrahydro-β-carboline-3-carboxylic acid (RRPAK; not fully specified (C-terminus)) [compound 16]	24.19 ± 10.08 mm^2	204.11 ± 32.87 min	14.11 ± 2.87 mg
H-Lys-Arg-Pro-Ala-Lys-OH (H-KRPAK-OH) [compound 3]	38.99 ± 9.06 mm^2	221.28 ± 23.46 min	21.28 ± 3.46^1)2) mg
H-Ala-Arg-Pro-Ala-OH (H-ARPA-OH) [compound 10]	31.01 ± 9.26 mm^2	214.01 ± 28.26 min	14.01 ± 2.26 mg
3S-1,2,3,4-tetrahydro-β-carboline-3-carboxyl-Ala-Arg-Pro-Ala-OH (ARPA-OH; not fully specified (N-terminus); printed as 3S-1,2,3,4-tetrahydro-β-carboline-3-carboxyl-Ala-Arg-Pro-Ala-OH) [compound 17]	23.44 ± 10.18 mm^2	213.55 ± 30.47 min	13.55 ± 2.47 mg
3S-1,2,3,4-tetrahydro-β-carboline-3-carboxyl-Gln-Arg-Pro-Ala-Lys-OH (QRPAK-OH; not fully specified (N-terminus); printed as 3S-1,2,3,4-tetrahydro-β-carboline-3-carboxyl-Gln-Arg-Pro-Ala-Lys-OH) [compound 14]	22.89 ± 10.02 mm^2	212.98 ± 28.42 min	12.98 ± 2.42 mg
H-ARPAK-OH [compound 1, H-Ala-Arg-Pro-Ala-Lys-OH]	119.12 ± 12.44^a mm^2	90.12 ± 17.64^a,b min	18.84 ± 3.18^1)2) mg
H-Arg-Pro-Ala-Lys-OH (H-RPAK-OH) [compound 7]	125.33 ± 10.10^a mm^2	85.22 ± 20.40^a,b min	18.22 ± 2.40^a mg
3S-(2-Gly-Arg-Pro-Ala-Lys)-1,2,3,4-tetrahydro-β-carboline-3-carboxylic acid (GRPAK; not fully specified (C-terminus)) [compound 22]	125.90 ± 11.15^a mm^2	98.02 ± 25.21^a min	24.02 ± 5.21^1) mg
3S-1,2,3,4-tetrahydro-β-carboline-3-carboxyl-Arg-Pro-Ala-Lys-OH (RPAK-OH; not fully specified (N-terminus); printed as 3S-1,2,3,4-tetrahydro-β-carboline-3-carboxyl-Arg-Pro-Ala-Lys-OH) [compound 19]	20.33 ± 9.28 mm^2	213.56 ± 29.95 min	13.56 ± 2.45 mg
H-Gly-Arg-Pro-Ala-Lys-OH (H-GRPAK-OH) [compound 2]	125.90 ± 11.15^a mm^2	89.90 ± 20.05^a,b min	25.90 ± 2.05^1) mg
H-Pro-Ala-Lys-OH [compound 8]	138.06 ± 9.39^a mm^2	80.68 ± 20.34^a,b min	23.68 ± 2.34^a mg
